Target: T1, wild-type HIV-1 protease (Human immunodeficiency virus type 1 group M subtype B, UniProt P04585)
T1 construct: Escherichia coli expressed wild-type HIV-1 protease protein
Test: Assay for Inhibition of Microbial Expressed HIV Protease (peptide substrate cleavage, LC-MS/MS readout)
Type: biochemical
Conditions: E. coli expressed wild-type HIV-1 protease, mean of at least two independent experiments, read-out: HIV Pr Enzyme HIV1 PR IC50
Summary of the method: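 Cleavage of Val-Ser-Gln-Asn-(β-naphthyl)Ala-Pro-Ile-Val (400 μM) by recombinant HIV-1 protease ([…]) ran 1 h at 30 °C after a 30 min room-temperature inhibitor preincubation in 50 mM sodium acetate pH 5.5. Product peak areas by LC-MS/MS gave inhibition; values average at least two independent runs.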

## N=C1NC(c2ccc(F)cc2)(c2ccc(F)cc2)C(=O)N1Cc1cc(C(=O)N2Cc3nccnc3C2)ccn1 [Compound 402, 3-{[4-(5,7-dihydro-6H-pyrrolo[3,4-b]pyrazin-6-ylcarbonvl)pyridin-2-yl]methyl}-5,5-bis(4-fluorophenyl)-2-iminoimidazolidin-4-one]
  IC50: 34.2 nM

## CC(C)CCC1(c2ccccc2)NC(=N)N(Cc2cccc(C(=O)N3Cc4ccccc4C3)c2)C1=O (stereo not shown) [Compound 204, 3-[3-(1,3-dihydro-2H-isoindol-2-ylcarbonyl)benzyl]-2-imino-5-(3-methylbutyl)-5-phenylimidazolidin-4-one]
  IC50: 7.38 nM

## CCCn1cc(-c2ncc3c(n2)CN(C(=O)c2cc(CN4C(=N)N[C@](CCCC(F)(F)F)(c5ccc(F)cc5)C4=O)ccc2C(F)(F)F)C3)cn1 [Compound 18, (5R)-5-(4-fluorophenyl)-2-imino-3-[3-{[2-(1-propyl-1H-pyrazol-4-yl)-5,7-dihydro-6H-pyrrolo[3,4-d]pyrimidin-6-yl]carbonyl}-4-(trifluoromethyl)benzyl]-5-(4,4,4-trifluorobutyl)imidazolidin-4-one]
  IC50: 2 nM

## C[C@H](c1cccc(C(=O)N2Cc3nccnc3C2)c1)N1C(=N)NC(c2ccc(F)cc2)(c2ccc(F)cc2)C1=O [Compound 186, 3-{(1R)-1-[3-(5,7-dihydro-6H-pyrrolo[3,4-b]pyrazin-6-ylcarbonyl)phenyl]ethyl}-5,5-bis(4-fluorophenyl)-2-iminoimidazolidin-4-one]
  IC50: 3.24 nM

## N=C1NC(c2ccccc2)(c2ccccc2)C(=O)N1Cc1cccc(C(=O)N2Cc3[nH]nc(C(F)(F)F)c3C2)c1 [Compound 184, 2-imino-5,5-diphenyl-3-(3-{[3-(trifluoromethyl)-4,6-dihydropyrrolo[3,4-c]pyrazol-5(1H)-yl]carbonyl}benzyl) imidazolidin-4-one]
  IC50: 2.74 nM

## Cc1nc2c([nH]1)CN(C(=O)c1cccc(CN3C(=N)NC(CCC(C)C)(c4ccccc4)C3=O)c1)C2 (stereo not shown) [Compound 257, 2-imino-5-(3-methylbutyl)-3-{3-[(2-methyl-4,6-dihydropyrrolo[3,4-d]imidazol-5(1H)-yl)carbonyl]benzyl}-5-phenylimidazolidin-4-one]
  IC50: 21.2 nM

## N=C1NC(c2ccc(F)cc2)(c2ccc(F)cc2)C(=O)N1Cc1cccc(C(=O)N2Cc3ccc(C(F)(F)F)cc3C2)c1 [Compound 317, 5,5-bis(4-fluorophenyl)-2-imino-3-(3-{[5-(trifluoromethyl)-1,3-dihydro-2H-isoindol-2-yl]carbonyl}benzyl)-imidazolidin-4-one]
  IC50: 54.9 nM

## CC(C)CCC1(c2ccccc2)NC(=N)N(Cc2cccc(C(=O)N3CCC(n4c(=O)[nH]c5ccccc54)CC3)c2)C1=O (stereo not shown) [Compound 314, 1-{1-[(3-{[2-imino-4-(3-methylbutyl)-5-oxo-4-phenylimidazolidin-1-yl]methyl}phenyl)carbonyl]piperidin-4-yl}-1,3-dihydro-2H-benzimidazol-2-one]
  IC50: 52.1 nM

## N=C1NC(CCC2CC2)(c2cccc(C(F)(F)F)c2)C(=O)N1Cc1ccc(C(F)(F)F)c(C(=O)N2Cc3nccnc3C2)c1 (stereo not shown) [Compound 114, 5-(2-cyclopropylethyl)-3-[3-(5,7-dihydro-6H-pyrrolo[3,4-b]pyrazin-6-ylcarbonyl)-4-(trifluoromethyl)-benzyl]-2-imino-5-[3-(trifluoromethyl)-phenyl]-imidazolidin-4-one]
  IC50: 34.5 nM

## CC(C)CCC1(c2ccc(F)cc2)NC(=N)N(Cc2ccc(C(F)(F)F)c(C(=O)N3Cc4cncnc4C3)c2)C1=O (stereo not shown) [Compound 144, 3-[3-(5,7-dihydro-6H-pyrrolo[3,4-d]pyrimidin-6-ylcarbonyl)-4-(trifluoromethyl)benzyl]-5-(4-fluorophenyl)-2-imino-5-(3-methylbutyl)imidazolidin-4-one]
  IC50: 3.73 nM

## CSc1nnc2n1CCN(C(=O)c1cc(CN3C(=N)N[C@](CCCC(F)(F)F)(c4ccc(F)cc4)C3=O)ccc1C(F)(F)F)C2 [Compound 50, (5R)-5-(4-fluorophenyl)-2-imino-3-[3-{[3-(methylsulfanyl)-5,6-dihydro[1,2,4]triazolo[4,3-a]pyrazin-7(8H)-yl]carbonyl}-4-(trifluoromethyl)benzyl]-5-(4,4,4-trifluorobutyl)imidazolidin-4-one]
  IC50: 5.49 nM

## N=C1N[C@](CCCC(F)(F)F)(c2ccc(F)cc2)C(=O)N1Cc1ccc(C(F)(F)F)c(C(=O)N2Cc3cnc(N4CCCC4)nc3C2)c1 [Compound 106, (5R)-5-(4-fluorophenyl)-2-imino-3-{3-[(2-pyrrolidin-1-yl-5,7-dihydro-6H-pyrrolo[3,4-d]pyrimidin-6-yl)carbonyl]-4-(trifluoromethyl)-benzyl}-5-(4,4,4-trifluorobutyl)-imidazolidin-4-one]
  IC50: 25.4 nM

## N=C1NC(c2ccccc2)(c2ccccc2)C(=O)N1Cc1cccc(C(=O)N2CCn3nc(C(F)(F)F)nc3C2)c1 [Compound 301, 2-imino-5,5-diphenyl-3-(3-{[2-(trifluoromethyl)-5,6-dihydro[1,2,4]triazolo[1,5-a]pyrazin-7(8H)-yl]carbonyl}benzyl) imidazolidin-4-one]
  IC50: 45.2 nM

## N=C1NC(c2ccc(F)cc2)(c2ccc(F)cc2)C(=O)N1Cc1ccc(Cl)c(C(=O)N2Cc3ccccc3C2)c1 [Compound 375, 3-[4-chloro-3-(1,3-dihydro-2H-isoindol-2-ylcarbonyl)benzyl]-5,5-bis(4-fluorophenyl)-2-iminoimidazolidin-4-one]
  IC50: 7.56 nM

## CN(C)S(=O)(=O)c1cccc(-c2ncc3c(n2)CN(C(=O)c2cc(CN4C(=N)N[C@](CCCC(F)(F)F)(c5ccc(F)cc5)C4=O)ccc2C(F)(F)F)C3)c1 [Compound 66, 3-(6-{[5-{[(4R)-4-(4-fluorophenyl)-2-imino-5-oxo-4-(4,4,4-trifluorobutyl)imidazolidin-1-yl]methyl}-2-(trifluoromethyl)-phenyl]carbonyl}-6,7-dihydro-5H-pyrrolo[3,4-d]pyrimidin-2-yl)-N,N-dimethylbenzene-sulfonamide]
  IC50: 7.73 nM

## CN(C)C(=O)N1CCN(C(=O)c2cc(F)cc(CN3C(=N)NC(c4ccccc4)(c4ccccc4)C3=O)c2)CC1 [Compound 309, 4-({3-fluoro-5-[(2-imino-5-oxo-4,4-diphenylimidazolidin-1-yl)methyl]phenyl}carbonyl)-N,N-dimethylpiperazine-1-carboxamide]
  IC50: 122 nM

## CC(C)Nc1ncc2c(n1)CN(C(=O)c1cc(CN3C(=N)N[C@](CCCC(F)(F)F)(c4ccc(F)cc4)C3=O)ccc1C(F)(F)F)C2 [Compound 51, (5R)-5-(4-fluorophenyl)-2-imino-3-[3-({2-[(1-methylethyl)amino]-5,7-dihydro-6H-pyrrolo[3,4-d]pyrimidin-6-yl}carbonyl)-4-(trifluoromethyl)benzyl]-5-(4,4,4-trifluorobutyl)imidazolidin-4-one]
  IC50: 5.51 nM

## CC(C)CCC1(c2cccc(F)c2)NC(=N)N(Cc2cccc(C(=O)N3Cc4nccnc4C3)c2)C1=O (stereo not shown) [Compound 265, 3-[3-(5,7-dihydro-6H-pyrrolo[3,4-b]pyrazin-6-ylcarbonyl)benzyl]-5-(3-fluorophenyl)-2-imino-5-(3-methylbutyl)imidazolidin-4-one]
  IC50: 24.8 nM

## N=C1NC(c2ccccc2)(c2ccccc2)C(=O)N1Cc1cccc(C(=O)N2CCN(c3ccccn3)CC2)c1 [Compound 307, 2-imino-5,5-diphenyl-3-{3-[(4-pyridin-2-ylpiperazin-1-yl)carbonyl]benzyl}-imidazolidin-4-one]
  IC50: 47.7 nM

## N=C1NC(c2ccc(F)cc2)(c2ccc(F)cc2)C(=O)N1Cc1ccc(Cl)c(C(=O)N2Cc3cncnc3C2)c1 [Compound 376, 3-[4-chloro-3-(5,7-dihydro-6H-pyrrolo[3,4-d]pyrimidin-6-ylcarbonyl)benzyl]-5,5-bis(4-fluorophenyl)-2-iminoimidazolidin-4-one]
  IC50: 9.6 nM

## CC(C)CC[C@]1(c2ccccc2)NC(=N)N(C(CC(C)C)c2ccc(C(F)(F)F)c(C(=O)N3Cc4nccnc4C3)c2)C1=O (stereo partly drawn) [Compound 31, (5R)-3-{1-[3-(5,7-dihydro-6H-pyrrolo[3,4-b]pyrazin-6-ylcarbonyl)-4-(trifluoromethyl)-phenyl]-3-methylbutyl}-2-imino-5-(3-methylbutyl)-5-phenylimidazolidin-4-one]
  IC50: 3.13 nM

## CCOC(=O)c1nc2n(c1Cl)CCN(C(=O)c1cccc(CN3C(=N)NC(c4ccccc4)(c4ccccc4)C3=O)c1)C2 [Compound 247, ethyl 3-chloro-7-({3-[(2-imino-5-oxo-4,4-diphenylimidazolidin-1-yl)methyl]phenyl}carbonyl)-5,6,7,8-tetrahydroimidazo[1,2-a]pyrazine-2-carboxylate]
  IC50: 17.9 nM

## N=C1NC(c2ccc(F)cc2)(c2ccc(F)cc2)C(=O)N1Cc1cccc(C(=O)N2CCN(C(=O)c3ccco3)CC2)c1 [Compound 267, 5,5-bis(4-fluorophenyl)-3-(3-{[4-(furan-2-ylcarbonyl)piperazin-1-yl]carbonyl}benzyl)-2-iminoimidazolidin-4-one]
  IC50: 26.3 nM

## N#Cc1cccc(-c2cccc(C3(c4ccc(F)cc4)NC(=N)N(Cc4cccc(C(=O)N5Cc6ccccc6C5)c4)C3=O)c2)c1 (stereo not shown) [Compound 292, 3′-{1-[3-(1,3-dihydro-2H-isoindol-2-ylcarbonyl)benzyl]-4-(4-fluorophenyl)-2-imino-5-oxoimidazolidin-4-yl}biphenyl-3-carbonitrile]
  IC50: 39 nM

## N=C1N[C@](CCC2CC2)(c2ccc(F)cc2)C(=O)N1C(CN1CCCC1=O)c1ccc(C(F)(F)F)c(C(=O)N2Cc3nccnc3C2)c1 (stereo partly drawn) [Compound 7, (5R)-5-(2-cyclopropylethyl)-3-{1-[3-(5,7-dihydro-6H-pyrrolo[3,4-b]pyrazin-6-ylcarbonyl)-4-(trifluoromethyl)phenyl]-2-(2-oxopyrrolidin-1-yl)ethyl}-5-(4-fluorophenyl)-2-iminoimidazolidin-4-one]
  IC50: 0.39 nM
